# From patent publication US20250163104A1, “MACROCYCLIC IMMUNOMODULATORS” (priority 2021, published 2025)
# Where a SMILES comes first, the peptide text is derived from it. Bridges are numbered along the chain shown (N, C = ends). [ ]: non-standard residue; d: D form. The star is where a group is joined. ξ: configuration not given here. Phe(4-COOH) = N[C@@H](Cc1ccc(C(=O)O)cc1)C(=O)O; Bip = N[C@@H](Cc1ccc(-c2ccccc2)cc1)C(=O)O; Phe(3-Me) = Cc1cccc(C[C@H](N)C(=O)O)c1; 4Pal = N[C@@H](Cc1ccncc1)C(=O)O; Cit = NC(=O)NCCC[C@H](N)C(=O)O; Carboxymethyl = O=C(O)C*; Orn = NCCC[C@H](N)C(=O)O; Dab = NCC[C@H](N)C(=O)O; Dap = NC[C@H](N)C(=O)O; ξA = CC(N)C(=O)O
# Molecular target: T1, human PD-1 / PD-L1-Ig binding on Jurkat cell line over-expressing human PD-1 (Jurkat-PD-1) (Homo sapiens, UniProt Q15116)
# T1 construct: expressed in transfected cells; host or cells: Jurkat
# T1 sequence (Q15116 25-288): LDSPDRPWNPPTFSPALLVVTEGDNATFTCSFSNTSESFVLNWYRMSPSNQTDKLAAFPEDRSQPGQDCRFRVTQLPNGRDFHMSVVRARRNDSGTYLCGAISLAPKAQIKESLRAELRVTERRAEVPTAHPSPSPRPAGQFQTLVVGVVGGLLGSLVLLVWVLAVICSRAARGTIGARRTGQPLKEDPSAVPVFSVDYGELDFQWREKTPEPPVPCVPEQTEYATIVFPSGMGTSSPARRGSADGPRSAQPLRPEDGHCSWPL
# Assay: Jurkat-PD-1 Cell Binding High-Content Screening Assay (CBA)
# Assay type: cell-based
# Conditions: Jurkat-PD-1 cells, PE-labeled PD-L1-Ig 20 nM final; read-out: Jurkat HPD1_PDL1 IC50
# Procedure, shortened: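 Read-out: high-content imaging of PE-tagged PD-L1-Ig bound to Jurkat cells overexpressing human PD-1, after fixation with 4% paraformaldehyde and Hoechst 33342 nuclear staining. Ligand was used at 20 nM final for 1 hour, after a 2 h compound exposure at 37° C in serum-containing DMEM.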
row,Compound,IC50 [nM]
1,CC(C)C[C@@H]1NC(=O)[C@H](CCN)NC(=O)[C@@H](CC(C)C)NC(=O)[C@H](CCCN)NC(=O)[C@H](C(C)C)NC(=O)[C@H](Cc2ccc(-c3ccccc3)cc2)NC(=O)[C@H](C(C)C)NC(=O)[C@H](Cc2c[nH]c3ccccc23)NC(=O)[C@H](CC(=O)O)NC(=O)[C@H](Cc2ccncc2)NC(=O)[C@H](CN)NC(=O)CSC[C@@H](C(=O)NC(C)C(N)=O)NC(=O)[C@H]([C@@H](C)O)NC(=O)[C@H](C(C)C)NC1=O (stereo partly drawn) [Compound 1236] ({CH2CO}-[Dap][4Pal]DWV[Bip]V[Orn][dL][Dab]LVTC[ξA]-NH2; thioether N-14),17.4
2,CC[C@H](C)[C@@H]1NC(=O)[C@H](Cc2ccc(-c3ccccc3)cc2)NC(=O)[C@H](C(C)C)NC(=O)[C@H](Cc2c[nH]c3ccccc23)NC(=O)[C@H](CC(=O)O)NC(=O)[C@H](Cc2ccncc2)NC(=O)[C@H](CN)NC(=O)CSC[C@@H](C(=O)N[C@@H](C)C(N)=O)NC(=O)[C@H]([C@@H](C)O)NC(=O)[C@H](C(C)C)NC(=O)[C@H](CC(C)C)NC(=O)[C@H](CCN)NC(=O)[C@@H](CC(C)C)NC(=O)[C@H](CCCN)NC1=O [Compound 1238] ({CH2CO}-[Dap][4Pal]DWV[Bip]I[Orn][dL][Dab]LVTCA-NH2; thioether N-14),15
3,Cc1cccc(C[C@@H]2NC(=O)[C@H](CC(=O)O)NC(=O)[C@H](Cc3ccncc3)NC(=O)[C@H](CN)NC(=O)CSC[C@@H](C(=O)N[C@@H](C)C(N)=O)NC(=O)[C@H]([C@@H](C)O)NC(=O)[C@H](C(C)C)NC(=O)[C@H](CC(C)C)NC(=O)[C@H](CCN)NC(=O)[C@@H](CC(C)C)NC(=O)[C@H](CCCN)NC(=O)[C@H](CCCNC(N)=O)NC(=O)[C@H](Cc3ccc(-c4ccccc4)cc3)NC(=O)[C@H](C(C)C)NC2=O)c1 [Compound 1239] ({CH2CO}-[Dap][4Pal]D[Phe(3-Me)]V[Bip][Cit][Orn][dL][Dab]LVTCA-NH2; thioether N-14),14.3
4,CC(C)C[C@@H]1NC(=O)[C@H](CCN)NC(=O)[C@@H](CC(C)C)NC(=O)[C@H](CCCN)NC(=O)[C@H](CCCNC(N)=O)NC(=O)[C@H](Cc2ccc(-c3ccccc3)cc2)NC(=O)[C@H](C(C)C)NC(=O)[C@H](Cc2c[nH]c3ccccc23)NC(=O)[C@H](CC(=O)O)NC(=O)[C@H](Cc2ccncc2)NC(=O)[C@H](CN)NC(=O)CSC[C@@H](C(=O)N[C@@H](C)C(N)=O)NC(=O)[C@H]([C@@H](C)O)NC(=O)[C@H](C(C)C)NC1=O [Compound 1240] ({CH2CO}-[Dap][4Pal]DWV[Bip][Cit][Orn][dL][Dab]LVTCA-NH2; thioether N-14),119
5,CC(C)C[C@@H]1NC(=O)[C@H](CCN)NC(=O)[C@@H](CC(C)C)NC(=O)[C@H](CCCN)NC(=O)[C@H](CCCNC(N)=O)NC(=O)[C@H](Cc2ccc(-c3ccccc3)cc2)NC(=O)[C@H](C(C)C)NC(=O)[C@H](Cc2c[nH]c3ccccc23)NC(=O)[C@H](CC(=O)O)NC(=O)[C@H](Cc2ccc(OCC(=O)O)cc2)NC(=O)[C@H](CN)NC(=O)CSC[C@@H](C(=O)N[C@@H](C)C(N)=O)NC(=O)[C@H]([C@@H](C)O)NC(=O)[C@H](C(C)C)NC1=O [Compound 1241] ({CH2CO}-[Dap]Y(Carboxymethyl)DWV[Bip][Cit][Orn][dL][Dab]LVTCA-NH2; thioether N-14),27.8
6,CC(C)C[C@@H]1NC(=O)[C@H](CCN)NC(=O)[C@@H](CC(C)C)NC(=O)[C@H](CCCN)NC(=O)[C@H](CCCNC(=N)N)NC(=O)[C@H](Cc2ccc(-c3ccccc3)cc2)NC(=O)[C@H](C(C)C)NC(=O)[C@H](Cc2c[nH]c3ccccc23)NC(=O)[C@H](CC(=O)O)NC(=O)[C@H](Cc2ccc(OCC(=O)O)cc2)NC(=O)[C@H](Cc2ccncc2)NC(=O)CSC[C@@H](C(=O)N[C@@H](C)C(N)=O)NC(=O)[C@H]([C@@H](C)O)NC(=O)[C@H](C(C)C)NC1=O [Compound 1242] ({CH2CO}-[4Pal]Y(Carboxymethyl)DWV[Bip]R[Orn][dL][Dab]LVTCA-NH2; thioether N-14),28.9
7,CC(C)C[C@@H]1NC(=O)[C@H](CCN)NC(=O)[C@@H](CC(C)C)NC(=O)[C@H](CCCN)NC(=O)[C@H](CCCNC(=N)N)NC(=O)[C@H](Cc2ccc(-c3ccccc3)cc2)NC(=O)[C@H](C(C)C)NC(=O)[C@H](Cc2c[nH]c3ccccc23)NC(=O)[C@H](CC(=O)O)NC(=O)[C@H](Cc2ccc(C(=O)O)cc2)NC(=O)[C@H](Cc2ccc(OCC(=O)O)cc2)NC(=O)CSC[C@@H](C(=O)N[C@@H](C)C(N)=O)NC(=O)[C@H]([C@@H](C)O)NC(=O)[C@H](C(C)C)NC1=O [Compound 1243] ({CH2CO}-Y(Carboxymethyl)[Phe(4-COOH)]DWV[Bip]R[Orn][dL][Dab]LVTCA-NH2; thioether N-14),42.9
8,CC(C)C[C@@H]1NC(=O)[C@H](CCN)NC(=O)[C@@H](CC(C)C)NC(=O)[C@H](CCCN)NC(=O)[C@H](CCCNC(=N)N)NC(=O)[C@H](Cc2ccc(-c3ccccc3)cc2)NC(=O)[C@H](C(C)C)NC(=O)[C@H](Cc2c[nH]c3ccccc23)NC(=O)[C@H](CC(=O)O)NC(=O)[C@H](Cc2ccncc2)NC(=O)[C@H](CN)NC(=O)CSC[C@@H](C(=O)N[C@@H](C)C(N)=O)NC(=O)[C@H]([C@@H](C)O)NC(=O)[C@H](C(C)C)NC1=O [Compound 1244] ({CH2CO}-[Dap][4Pal]DWV[Bip]R[Orn][dL][Dab]LVTCA-NH2; thioether N-14),22.3
9,CC(C)C[C@@H]1NC(=O)[C@H](CCN)NC(=O)[C@@H](CC(C)C)NC(=O)[C@H](CCCN)NC(=O)[C@H](C(C)C)NC(=O)[C@H](Cc2ccc(-c3ccccc3)cc2)NC(=O)[C@H](C(C)C)NC(=O)[C@H](Cc2c[nH]c3ccccc23)NC(=O)[C@H](CC(=O)O)NC(=O)[C@H](Cc2ccc(OCC(=O)O)cc2)NC(=O)[C@H](Cc2ccc(OCC(=O)O)cc2)NC(=O)CSC[C@@H](C(=O)N[C@@H](C)C(N)=O)NC(=O)[C@H]([C@@H](C)O)NC(=O)[C@H](C(C)C)NC1=O [Compound 1245] ({CH2CO}-Y(Carboxymethyl)Y(Carboxymethyl)DWV[Bip]V[Orn][dL][Dab]LVTCA-NH2; thioether N-14),20.8
10,CC(C)C[C@@H]1NC(=O)[C@H](CCN)NC(=O)[C@@H](CC(C)C)NC(=O)[C@H](CCCN)NC(=O)[C@H](Cc2ccc(-c3ccccc3)cc2)NC(=O)[C@H](Cc2ccc(-c3ccccc3)cc2)NC(=O)[C@H](C(C)C)NC(=O)[C@H](Cc2c[nH]c3ccccc23)NC(=O)[C@H](CC(=O)O)NC(=O)[C@H](Cc2ccc(OCC(=O)O)cc2)NC(=O)[C@H](Cc2ccc(OCC(=O)O)cc2)NC(=O)CSC[C@@H](C(=O)N[C@@H](C)C(N)=O)NC(=O)[C@H]([C@@H](C)O)NC(=O)[C@H](C(C)C)NC1=O [Compound 1246] ({CH2CO}-Y(Carboxymethyl)Y(Carboxymethyl)DWV[Bip][Bip][Orn][dL][Dab]LVTCA-NH2; thioether N-14),84.4
11,CC(C)C[C@@H]1NC(=O)[C@H](CCN)NC(=O)[C@@H](CC(C)C)NC(=O)[C@H](CCCN)NC(=O)[C@H](CCCNC(N)=O)NC(=O)[C@H](Cc2ccc(-c3ccccc3)cc2)NC(=O)[C@H](C(C)C)NC(=O)[C@H](Cc2c[nH]c3ccccc23)NC(=O)[C@H](CC(=O)O)NC(=O)[C@H](Cc2ccc(OCC(=O)O)cc2)NC(=O)[C@H](Cc2ccc(OCC(=O)O)cc2)NC(=O)CSC[C@@H](C(=O)N[C@@H](C)C(N)=O)NC(=O)[C@H]([C@@H](C)O)NC(=O)[C@H](C(C)C)NC1=O [Compound 1247] ({CH2CO}-Y(Carboxymethyl)Y(Carboxymethyl)DWV[Bip][Cit][Orn][dL][Dab]LVTCA-NH2; thioether N-14),19.7
